Columns and labels:
Type in all cases: cell-based
Corynespora cassiicola = Corynespora cassiicola growth inhibition in liquid culture (microtiter plate, photometric); settings: for Observed Activity (%): A-1.3 0 ppm
Excerpt: A synergistic effect exists whenever the action of an active ingredient combination is greater than the sum of the actions of the individual components. The action to be expected E for a given active ingredient combination obeys the so-called COLBY formula and can be calculated as follows (COLBY, S. R. “Calculating synergistic and antagonistic responses of herbicide combination”. Weeds, Vol. 15, pages 20-22; 1967): • ppm=milligrams of active ingredient (=a.i.) per liter of spray mixture • X=% action by active ingredient A) using p ppm of active ingredient • Y=% action by active ingredient B) using q ppm of active ingredient. According to COLBY, the expected (additive) action of active ingredients A)+B) using p+q ppm of active ingredient is: If the action actually observed (O) is greater than the expected action (E), then the action of the combination is super-additive, i.e. there is a synergistic effect. In mathematical terms, synergism corresponds to a positive value for the difference of (O-E). In the case of purely complementary addition of activities (expected activity), said difference (O-E) is zero. A negative value of said difference (O-E) signals a loss of activity compared to the expected activity. Corynespora cassiicola (Target Spot of Soybean, Target Leaf Spot of Tomato): Conidia of the fungus from cryogenic storage were directly mixed into nutrient broth (PDB potato dextrose broth). A DMSO solution of the test compounds was placed into a microtiter plate (96-well format) and the nutrient broth containing the fungal spores was added to it. The test plates were incubated at 24° C. and the inhibition of growth was determined photometrically after 3-4 days at 620 nm. Rates and results are set out in the following tables: […]

Septoria glycines = Septoria glycines growth inhibition in liquid culture (microtiter plate, visual)
Excerpt: A synergistic effect exists whenever the action of an active ingredient combination is greater than the sum of the actions of the individual components. The action to be expected E for a given active ingredient combination obeys the so-called COLBY formula and can be calculated as follows (COLBY, S. R. “Calculating synergistic and antagonistic responses of herbicide combination”. Weeds, Vol. 15, pages 20-22; 1967): • ppm=milligrams of active ingredient (=a.i.) per liter of spray mixture • X=% action by active ingredient A) using p ppm of active ingredient • Y=% action by active ingredient B) using q ppm of active ingredient. According to COLBY, the expected (additive) action of active ingredients A)+B) using p+q ppm of active ingredient is: If the action actually observed (O) is greater than the expected action (E), then the action of the combination is super-additive, i.e. there is a synergistic effect. In mathematical terms, synergism corresponds to a positive value for the difference of (O-E). In the case of purely complementary addition of activities (expected activity), said difference (O-E) is zero. A negative value of said difference (O-E) signals a loss of activity compared to the expected activity. Septoria glycines (Brown Spot): Conidia of the fungus from cryogenic storage were directly mixed into nutrient broth ([…] potato dextrose broth). A DMSO solution of the test compounds was placed into a microtiter plate (96-well format) and the nutrient broth containing the fungal spores was added to it. The test plates were incubated at 24° C. and the inhibition of growth was determined visually after 72 hrs.

[1] = system: Mycosphaerella arachidis Syn. Cercospora arachidicola; assay: Mycosphaerella arachidis growth inhibition in liquid culture (microtiter plate, photometric); settings: for Observed Activity (%): A-1.3 0 ppm
Excerpt: A synergistic effect exists whenever the action of an active ingredient combination is greater than the sum of the actions of the individual components. The action to be expected E for a given active ingredient combination obeys the so-called COLBY formula and can be calculated as follows (COLBY, S. R. “Calculating synergistic and antagonistic responses of herbicide combination”. Weeds, Vol. 15, pages 20-22; 1967): • ppm=milligrams of active ingredient (=a.i.) per liter of spray mixture • X=% action by active ingredient A) using p ppm of active ingredient • Y=% action by active ingredient B) using q ppm of active ingredient. According to COLBY, the expected (additive) action of active ingredients A)+B) using p+q ppm of active ingredient is: If the action actually observed (O) is greater than the expected action (E), then the action of the combination is super-additive, i.e. there is a synergistic effect. In mathematical terms, synergism corresponds to a positive value for the difference of (O-E). In the case of purely complementary addition of activities (expected activity), said difference (O-E) is zero. A negative value of said difference (O-E) signals a loss of activity compared to the expected activity. Mycosphaerella arachidis Syn. Cercospora arachidicola (Brown Leaf Spot of Peanut): Conidia of the fungus from cryogenic storage were directly mixed into nutrient broth (PDB potato dextrose broth). A DMSO solution of the test compounds was placed into a microtiter plate (96-well format) and the nutrient broth containing the fungal spores was added to it. The test plates were incubated at 24° C. and the inhibition of growth was determined photometrically after 5-6 days at 620 nm.

Septoria tritici = Septoria tritici growth inhibition in liquid culture (microtiter plate, photometric)
Excerpt: A synergistic effect exists whenever the action of an active ingredient combination is greater than the sum of the actions of the individual components. The action to be expected E for a given active ingredient combination obeys the so-called COLBY formula and can be calculated as follows (COLBY, S. R. “Calculating synergistic and antagonistic responses of herbicide combination”. Weeds, Vol. 15, pages 20-22; 1967): • ppm=milligrams of active ingredient (=a.i.) per liter of spray mixture • X=% action by active ingredient A) using p ppm of active ingredient • Y=% action by active ingredient B) using q ppm of active ingredient. According to COLBY, the expected (additive) action of active ingredients A)+B) using p+q ppm of active ingredient is: If the action actually observed (O) is greater than the expected action (E), then the action of the combination is super-additive, i.e. there is a synergistic effect. In mathematical terms, synergism corresponds to a positive value for the difference of (O-E). In the case of purely complementary addition of activities (expected activity), said difference (O-E) is zero. A negative value of said difference (O-E) signals a loss of activity compared to the expected activity. Septoria tritici (Leaf Blotch): Conidia of the fungus from cryogenic storage were directly mixed into nutrient broth (PDB potato dextrose broth). A DMSO solution of the test compounds was placed into a microtiter plate (96-well format) and the nutrient broth containing the fungal spores was added to it. The test plates were incubated at 24° C. and the inhibition of growth was determined photometrically after 72 hrs.

O=C(NC1CCC1c1ccc(Cl)cc1Cl)c1cccnc1C(F)(F)F (stereo in doubt) [Cyclobutrifluram]
Observed Activity (%) (Corynespora cassiicola; Cyclobutrifluram 0.0125 ppm): 0%
Observed Activity (%) (Corynespora cassiicola; Cyclobutrifluram 0.025 ppm): 20%
Observed Activity (%) (Corynespora cassiicola; Cyclobutrifluram 0.05 ppm): 50%
Observed Activity (%) (Septoria glycines; Table 13: A-1.3 0 ppm, Cyclobutrifluram 0.05 ppm): 70%
Observed Activity (%) (Septoria glycines; Table 13: A-1.3 0 ppm, Cyclobutrifluram 0.1 ppm): 90%
Observed Activity (%) (Septoria glycines; Table 13: A-1.3 0 ppm, Cyclobutrifluram 0.2 ppm): 90%
Observed Activity (%) (Septoria glycines; Table 14: A-1.3 0 ppm, Cyclobutrifluram 0.0125 ppm): 20%
Observed Activity (%) (Septoria glycines; Table 14: A-1.3 0 ppm, Cyclobutrifluram 0.025 ppm): 50%
Observed Activity (%) (Septoria glycines; Table 14: A-1.3 0 ppm, Cyclobutrifluram 0.05 ppm): 70%
Observed Activity (%) (Septoria glycines; Table 14: A-1.3 0 ppm, Cyclobutrifluram 0.1 ppm): 70%
Observed Activity (%) (Septoria glycines; Table 14: A-1.3 0 ppm, Cyclobutrifluram 0.2 ppm): 90%

CO/C=C(/C(=O)OC)c1ccccc1CSc1nc2ccccc2s1 [Benzothiostrobin]
Observed Activity (%) (Septoria glycines; Table 22: A-1.3 0 ppm, Benzothiostrobin 0.0125 ppm): 50%
Observed Activity (%) (Septoria glycines; Table 22: A-1.3 0 ppm, Benzothiostrobin 0.025 ppm): 70%
Observed Activity (%) (Septoria glycines; Table 22: A-1.3 0 ppm, Benzothiostrobin 0.05 ppm): 90%
Observed Activity (%) (Septoria glycines; Table 22: A-1.3 0 ppm, Benzothiostrobin 0.1 ppm): 90%
Observed Activity (%) (Septoria glycines; Table 22: A-1.3 0 ppm, Benzothiostrobin 0.2 ppm): 90%

COC(=O)C(O)(Cn1cncn1)c1ccc(Oc2ccc(Cl)cc2)cc1C(F)(F)F (centres unmarked) [Compound A-1.3, Methyl 2-[4-(4-chlorophenoxy)-2-(trifluoromethyl)phenyl]-2-hydroxy-3-(1,2,4-triazol-1-yl)propanoate]
inhibition at 0.03 ppm ([1]; Mycosphaerella arachidis, A-1.3 0.03 ppm, Pyriofenone 0 ppm, read-out: Observed Activity (%)): 50%
inhibition at 0.03 ppm (Corynespora cassiicola; Corynespora cassiicola, A-1.3 0.03 ppm, Cyclobutrifluram 0 ppm, read-out: Observed Activity (%)): 0%
inhibition at 0.2 ppm (Corynespora cassiicola; Corynespora cassiicola, A-1.3 0.2 ppm, Pyrisoxazole 0 ppm, read-out: Observed Activity (%)): 20%
inhibition at 0.03 ppm (Septoria glycines; Septoria glycines, Table 13: A-1.3 0.03 ppm, Cyclobutrifluram 0 ppm, read-out: Observed Activity (%)): 0%
inhibition at 0.06 ppm (Septoria glycines; Septoria glycines, Table 14: A-1.3 0.06 ppm, Cyclobutrifluram 0 ppm, read-out: Observed Activity (%)): 20%
inhibition at 0.03 ppm (Septoria tritici; Zymoseptoria tritici, Table 11: A-1.3 0.03 ppm, Pyrisoxazole 0 ppm, read-out: Observed Activity (%)): 0%
inhibition at 0.06 ppm (Septoria tritici; Zymoseptoria tritici, Table 12: A-1.3 0.06 ppm, Pyrisoxazole 0 ppm, read-out: Observed Activity (%)): 70%

COc1ccnc(C(=O)N[C@@H](C)C(=O)O[C@@H](C)C(c2ccc(F)cc2)c2ccc(F)cc2)c1OC(C)=O [Florylpicoxamid]
Observed Activity (%) (Septoria glycines; Table 15: A-1.3 0 ppm, Florylpicoxamid 0.05 ppm): 70%
Observed Activity (%) (Septoria glycines; Table 15: A-1.3 0 ppm, Florylpicoxamid 0.1 ppm): 90%

COc1c(F)c(F)c(C(=O)NCc2ncc(C(F)(F)F)cc2Cl)c(F)c1F [Fluopimomide]
Observed Activity (%) (Septoria glycines; Table 20: A-1.3 0 ppm, Fluopimomide 1.25 ppm): 0%
Observed Activity (%) (Septoria glycines; Table 20: A-1.3 0 ppm, Fluopimomide 2.5 ppm): 0%
Observed Activity (%) (Septoria glycines; Table 20: A-1.3 0 ppm, Fluopimomide 5 ppm): 0%
Observed Activity (%) (Septoria glycines; Table 20: A-1.3 0 ppm, Fluopimomide 10 ppm): 0%
Observed Activity (%) (Septoria glycines; Table 20: A-1.3 0 ppm, Fluopimomide 20 ppm): 0%

Cc1nc2c(F)c(F)ccc2cc1Oc1cccc(F)c1C(C)(C)O [Ipflufenoquin]
Observed Activity (%) (Septoria glycines; Table 16: A-1.3 0 ppm, Ipflufenoquin 0.6125 ppm): 70%
Observed Activity (%) (Septoria glycines; Table 16: A-1.3 0 ppm, Ipflufenoquin 1.25 ppm): 90%

CNC(=O)C(OC)c1ccccc1COc1cc(C)ccc1C (centres unmarked) [Mandestrobin]
Observed Activity (%) (Septoria glycines; Table 17: A-1.3 0 ppm, Mandestrobin 0.125 ppm): 50%
Observed Activity (%) (Septoria glycines; Table 17: A-1.3 0 ppm, Mandestrobin 0.25 ppm): 70%
Observed Activity (%) (Septoria glycines; Table 17: A-1.3 0 ppm, Mandestrobin 0.5 ppm): 90%
Observed Activity (%) (Septoria glycines; Table 18: A-1.3 0 ppm, Mandestrobin 0.25 ppm): 70%
Observed Activity (%) (Septoria glycines; Table 18: A-1.3 0 ppm, Mandestrobin 0.5 ppm): 70%
Observed Activity (%) (Septoria glycines; Table 18: A-1.3 0 ppm, Mandestrobin 1 ppm): 90%

Cc1cccc(-n2nnn(C)c2=O)c1COc1ccn(-c2ccc(Cl)cc2)n1 [Metyltetraprole]
Observed Activity (%) (Septoria glycines; Table 19: A-1.3 0 ppm, Metyltetraprole 0.003125 ppm): 50%
Observed Activity (%) (Septoria glycines; Table 19: A-1.3 0 ppm, Metyltetraprole 0.00625 ppm): 70%
Observed Activity (%) (Septoria glycines; Table 19: A-1.3 0 ppm, Metyltetraprole 0.0125 ppm): 90%
Observed Activity (%) (Septoria glycines; Table 23: A-1.3 0 ppm, Metyltetraprole 0.003125 ppm): 20%
Observed Activity (%) (Septoria glycines; Table 23: A-1.3 0 ppm, Metyltetraprole 0.00625 ppm): 70%
Observed Activity (%) (Septoria glycines; Table 23: A-1.3 0 ppm, Metyltetraprole 0.0125 ppm): 70%
Observed Activity (%) (Septoria glycines; Table 23: A-1.3 0 ppm, Metyltetraprole 0.025 ppm): 90%
Observed Activity (%) (Septoria glycines; Table 23: A-1.3 0 ppm, Metyltetraprole 0.05 ppm): 90%
Observed Activity (%) (Septoria glycines; Table 23: A-1.3 0 ppm, Metyltetraprole 0.1 ppm): 90%

COc1cc(C)c(C(=O)c2c(OC)ncc(Cl)c2C)c(OC)c1OC [Pyriofenone]
Observed Activity (%) ([1]; Pyriofenone 2.5 ppm): 0%
Observed Activity (%) ([1]; Pyriofenone 5 ppm): 0%
Observed Activity (%) ([1]; Pyriofenone 10 ppm): 0%
Observed Activity (%) ([1]; Pyriofenone 20 ppm): 0%
Observed Activity (%) (Septoria glycines; Table 21: A-1.3 0 ppm, Pyriofenone 1.25 ppm): 20%
Observed Activity (%) (Septoria glycines; Table 21: A-1.3 0 ppm, Pyriofenone 2.5 ppm): 20%
Observed Activity (%) (Septoria glycines; Table 21: A-1.3 0 ppm, Pyriofenone 5 ppm): 20%
Observed Activity (%) (Septoria glycines; Table 21: A-1.3 0 ppm, Pyriofenone 10 ppm): 20%
Observed Activity (%) (Septoria glycines; Table 21: A-1.3 0 ppm, Pyriofenone 20 ppm): 20%

CN1OC(c2ccc(Cl)cc2)CC1(C)c1cccnc1 (centres unmarked) [Pyrisoxazole]
Observed Activity (%) (Corynespora cassiicola; Pyrisoxazole 0.5 ppm): 20%
Observed Activity (%) (Corynespora cassiicola; Pyrisoxazole 1 ppm): 70%
Observed Activity (%) (Septoria tritici; Table 11: A-1.3 0 ppm, Pyrisoxazole 0.25 ppm): 0%
Observed Activity (%) (Septoria tritici; Table 11: A-1.3 0 ppm, Pyrisoxazole 0.5 ppm): 20%
Observed Activity (%) (Septoria tritici; Table 12: A-1.3 0 ppm, Pyrisoxazole 0.0625 ppm): 0%
Observed Activity (%) (Septoria tritici; Table 12: A-1.3 0 ppm, Pyrisoxazole 0.125 ppm): 0%
Observed Activity (%) (Septoria tritici; Table 12: A-1.3 0 ppm, Pyrisoxazole 0.25 ppm): 0%
Observed Activity (%) (Septoria tritici; Table 12: A-1.3 0 ppm, Pyrisoxazole 0.5 ppm): 70%
Observed Activity (%) (Septoria tritici; Table 12: A-1.3 0 ppm, Pyrisoxazole 1 ppm): 90%

Source: patent publication US20230172209A1, “FUNGICIDAL COMPOSITIONS” (SYNGENTA CROP PROTECTION AG, priority 2020, published 2023)
